{"source": "patent US11975003B2", "about": "“Methods and compositions for treatment of Zika virus infection” (priority 2016, dated 2024)", "test_system": "Zika virus (Malaysia, strain P 6-740)", "experiment": "Murine Zika virus model, re-challenge on day 28 (Example 4)", "type": "in vivo, AG129 mice", "experimental": "In this example, the surviving mice from the study described in Example 3 were subject to re-challenge on day 28 post-infection. On day 28, the only surviving mice in a treatment group were in group 1 (7/8 mice), the normal controls (group 8, 8/8 mice) and the virus sham treated groups (group 2, 8/8 mice and group 6, 8/8/mice). All surviving mice (with the exception of normal controls) were administered a challenge of Zika virus identical to the initial challenge.\nNo animals in Groups 1, 2 and 6 were administered additional doses of Compound A on day 28 prior to or after re-challenge. In this experiment, the sham infected mice of groups 2 and 6 served as the control groups to analyze the effects of treatment of Compound A on immune system activation (note that mice in group 2 received the same 300 mg/kg/day dose of Compound A as the mice in group 1 on day 0). The survival of the mice was monitored through day 60 post-initial infection."}
{"smiles": "Cl.Nc1ncnc2c([C@@H]3N[C@H](CO)[C@@H](O)[C@H]3O)c[nH]c12", "note": "[Compound A]", "values": [{"measurement": "re-challenged mice surviving at day 60", "setting": "group 1 (300 mg/kg/day from day 0, 7 survivors), second Zika challenge day 28, no additional dosing", "value": 7, "unit": "mice"}, {"measurement": "survival after first Zika challenge on day 28", "setting": "group 2 (300 mg/kg/day from day 0, sham infected), no dosing at challenge", "value": "no survival was observed past day 51"}]}
